Structures can show the parent of a compound that is named as a salt. Where two headings read alike, the source gives them in different places.
Assays:
[1] = molecular target: GST-Syk Full Protein (human) (Homo sapiens, UniProt P43405); assay: Syk kinase inhibition test (HTRF method); assay type: biochemical
Method in brief: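 HTRF read-out: after EDTA termination and 1 h with XL665-streptavidin and Eu-anti-phosphotyrosine, the 665/620 nm ratio was measured. The reaction ran 30 min at 20–25 °C with final 6.4 nM human GST-Syk, 250 nM biotinylated peptide, 100 μM ATP, pH 7.0 HEPES buffer, 2% DMSO.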

[2] = test system: cultured human mast cells; assay: Degranulation inhibition test using cultured human mast cells (IgE cross-linking, β-Hexosaminidase release); assay type: cell-based; settings: cultured human mast cells, read-out: human degranulation ave. IC50
Method in brief: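 Degranulation was triggered by anti-hIgE (10 μg/mL final, 30 min, 37 °C) after a 10-min compound pretreatment (DMSO 0.1%) of cord-blood CD34+-derived mast cells primed 5 days with IL-4 and IgE. β-Hexosaminidase in supernatant was measured with p-nitrophenyl-GlcNAc substrate (A405), expressed against water-lysed total; IC50 (M).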

[3] = HTRF, 100 μM ATP, 30 min room temperature, average, read-out: sykHTRF ave IC50
[4] = Mast cell, anti-hIgE stimulation, β-Hexosaminidase index, average
[5] = Tables 2-x, thiophene compounds B, read-out: sykHTRK ave IC50
[6] = Mast cell, Tables 2-x, thiophene compounds B
[7] = Tables 1-x, compounds A, read-out: sykHTRF ave IC50
[8] = Mast cell, Tables 1-x, compounds A

Compound | IC50 [1, 3] [nM] | IC50 [2, 4] [nM] | other results
Cc1ccnc(Nc2cccc(-c3ccc(NC(=O)[C@H](C)O)s3)n2)c1 [Compound B-35] | – | – | IC50 [1, 5]: 100 to 1000 nM; IC50 [2, 6]: 100 to 1000 nM
CC(=O)N[C@@H](C)c1ncc(-c2cccc(Nc3cc4ccccc4cn3)n2)s1 [Compound A-91, N—((S)-1-{5-[6-(isoquinolin-3-ylamino)pyridin-2-yl]thiazol-2-yl}ethyl)acetamide] | < 100 | 100 to 1000 | –
CC(=O)Nc1ccc(-c2cccc(Nc3cc(C)ccn3)n2)s1 [Compound B-10, N-{5-[6-(4-methylpyridin-2-ylamino)pyridin-2-yl]thiophen-2-yl}acetamide] | – | – | IC50 [1, 5]: < 100 nM; IC50 [2, 6]: 100 to 1000 nM
CN(Cc1ccc(C(=O)O)cc1)c1ncc(-c2cccc(Nc3cc(C4(C)OCCO4)ccn3)n2)s1 [Compound A-596, 4-{[N-methyl-N-(5-{6-[4-(2-methyl-[1,3]dioxolan-2-yl)pyridin-2-ylamino]pyridin-2-yl}thiazol-2-yl)amino]methyl}benzoic acid] | – | – | IC50 [1, 7]: < 100 nM; IC50 [2, 8]: 100 to 1000 nM
Cc1ccnc(Nc2cccc(-c3cnc(C4CCN(CC(=O)O)CC4)s3)n2)c1 [Compound A-185] | 100 to 1000 | > 1000 | –
COc1ccnc(Nc2cccc(-c3cnc(N4CCN(C(C)=O)CC4)s3)n2)c1 [Compound A-442, 1-(4-{5-[6-(4-methoxypyridin-2-ylamino)pyridin-2-yl]thiazol-2-yl}piperazin-1-yl)ethanone] | – | – | IC50 [1, 7]: < 100 nM; IC50 [2, 8]: 100 to 1000 nM
COC(=O)CCCc1ncc(-c2cccc(Nc3cc(C)ccn3)n2)s1 [Compound A-130] | 100 to 1000 | > 1000 | –
Cc1ccnc(Nc2cccc(-c3cnc([C@H]4CC[C@H](CN5CCC(O)CC5)CC4)s3)n2)c1 [Compound A-296] | 100 to 1000 | > 1000 | –
Cc1ccnc(Nc2cccc(-c3cnc(CCO)s3)n2)c1 [Compound A-205, 2-{5-[6-(4-methylpyridin-2-ylamino)pyridin-2-yl]thiazol-2-yl}ethanol] | < 100 | 100 to 1000 | –
Cc1ccnc(Nc2cccc(-c3cnc(CN4C(=O)CNCC4=O)s3)n2)c1 [Compound A-415] | – | – | IC50 [1, 7]: 100 to 1000 nM; IC50 [2, 8]: 100 to 1000 nM
Cc1ccnc(Nc2cccc(-c3cnc(CN4CCNC(=O)C4)s3)n2)c1 [Compound A-416, 4-{5-[6-(4-methylpyridin-2-ylamino)pyridin-2-yl]thiazol-2-ylmethyl}piperazin-2-one] | – | – | IC50 [1, 7]: < 100 nM; IC50 [2, 8]: < 100 nM
CO/N=C(\C)c1ccc(-c2cccc(Nc3cc(OC(C)C)ncn3)n2)s1 [Compound B-33] | – | – | IC50 [1, 5]: 100 to 1000 nM; IC50 [2, 6]: > 1000 nM
Cc1ccnc(Nc2cccc(-c3ccc(CNCCC(=O)O)s3)n2)c1 [Compound B-103] | – | – | IC50 [1, 5]: 100 to 1000 nM; IC50 [2, 6]: > 1000 nM
Cc1ccnc(Nc2cccc(-c3cnc(C(=O)NCC(C)O)s3)n2)c1 (stereo not shown) [Compound A-66] | 100 to 1000 | > 1000 | –
CCOC(=O)CC(C)(C)c1ncc(-c2cccc(Nc3cc(C)ccn3)n2)s1 [Compound A-144] | > 1000 | > 1000 | –
OCCc1ccnc(Nc2cccc(-c3cnc(N4CC[C@@H](O)C4)s3)n2)c1 [Compound A-577, (R)-1-(5-{6-[4-(2-hydroxyethyl)pyridin-2-ylamino]pyridin-2-yl}thiazol-2-yl)pyrrolidin-3-ol dihydrochloride] | – | – | IC50 [1, 7]: < 100 nM; IC50 [2, 8]: 100 to 1000 nM
Cc1ccnc(Nc2cccc(-c3cnc([C@H]4CC[C@H](C(=O)N5CCNC(=O)C5)CC4)s3)n2)c1 [Compound A-283, 4-(trans-4-{5-[6-(4-methylpyridin-2-ylamino)pyridin-2-yl]thiazol-2-yl}cyclohexanecarbonyl)piperazin-2-one] | < 100 | > 1000 | –
Cc1ccnc(Nc2cccc(-c3cnc([C@H](C)O)s3)n2)c1 [Compound A-26, (S)-1-{5-[6-(4-methylpyridin-2-ylamino)pyridin-2-yl]thiazol-2-yl}ethanol] | < 100 | 100 to 1000 | –

Compound | IC50 [1, 3] [nM] | IC50 [2, 4] [nM] | other results
Cc1ccnc(Nc2cccc(-c3cnc(C(=O)C(C)C)s3)n2)c1 [Compound A-83] | 100 to 1000 | > 1000 | –
Cc1ccnc(Nc2cccc(-c3ccc(C(=O)NC4CC4)s3)n2)c1 [Compound B-104] | – | – | IC50 [1, 5]: 100 to 1000 nM; IC50 [2, 6]: > 1000 nM
CC(=O)N[C@@H](Cc1ccccc1)c1ncc(-c2cccc(Nc3cc(C)ccn3)n2)s1 [Compound A-41] | 100 to 1000 | > 1000 | –
COc1ccnc(Nc2cccc(-c3cnc(N4CCC(C(N)=O)CC4)s3)n2)c1 [Compound A-517, 1-{5-[6-(4-methoxypyridin-2-ylamino)pyridin-2-yl]thiazol-2-yl}piperidine-4-carboxamide] | – | – | IC50 [1, 7]: < 100 nM; IC50 [2, 8]: 100 to 1000 nM
Cc1ccnc(Nc2cccc(-c3cnc(N4CCC[C@H]4C(N)=O)s3)n2)c1 [Compound A-528, (S)-1-{5-[6-(4-methylpyridin-2-ylamino)pyridin-2-yl]thiazol-2-yl}pyrrolidine-2-carboxamide] | – | – | IC50 [1, 7]: < 100 nM; IC50 [2, 8]: < 100 nM
CC(=O)N[C@@H](C)c1ncc(-c2cccc(Nc3cc(OCCN(C)C)ccn3)n2)s1 [Compound A-166] | > 1000 | > 1000 | –
Cc1ccnc(Nc2cccc(-c3cnc(N(C)CC(=O)N[C@H](C(=O)O)C(C)C)s3)n2)c1 [Compound A-568, (S)-3-methyl-2-[2-(N-methyl-N-{5-[6-(4-methylpyridin-2-ylamino)pyridin-2-yl]thiazol-2-yl}amino)acetylamino]butyric acid dihydrochloride] | – | – | IC50 [1, 7]: < 100 nM; IC50 [2, 8]: > 1000 nM
Cc1ccnc(Nc2cccc(-c3ccc(C(=O)NCCN)s3)n2)c1 [Compound B-43, N-(2-aminoethyl)-5-[6-(4-methylpyridin-2-ylamino)pyridin-2-yl]thiophene-2-carboxamide] | – | – | IC50 [1, 5]: < 100 nM; IC50 [2, 6]: > 1000 nM
CC(=O)c1ccc(-c2cccc(Nc3cc(OC(C)C)ncn3)n2)s1 [Compound B-30, 1-{5-[6-(6-isopropoxypyrimidin-4-ylamino)pyridin-2-yl]thiophen-2-yl}ethanone] | – | – | IC50 [1, 5]: < 100 nM; IC50 [2, 6]: > 1000 nM
Cc1ccnc(Nc2cccc(-c3cnc(CNS(C)(=O)=O)s3)n2)c1 [Compound A-200, N-{5-[6-(4-methylpyridin-2-ylamino)pyridin-2-yl]thiazol-2-ylmethyl}methanesulfonamide] | < 100 | 100 to 1000 | –
COc1ccc(C[C@H](NC(C)=O)c2ncc(-c3cccc(Nc4cc(C)ccn4)n3)s2)cc1 [Compound A-136] | 100 to 1000 | > 1000 | –
CC(=O)c1ccc(-c2cccc(Nc3cc(N(C)C)ncn3)n2)s1 [Compound B-26] | – | – | IC50 [1, 5]: 100 to 1000 nM; IC50 [2, 6]: > 1000 nM
Cc1ccnc(Nc2cccc(-c3cnc(COCC(=O)N4C[C@H](NCc5ccccc5)[C@@H](O)C4)s3)n2)c1 [Compound A-399] | – | – | IC50 [1, 7]: > 1000 nM; IC50 [2, 8]: > 1000 nM
Cc1ccnc(Nc2cccc(-c3cnc(N4CC[C@@H](O)C4)s3)n2)c1 [Compound A-479, (R)-1-{5-[6-(4-methylpyridin-2-ylamino)pyridin-2-yl]thiazol-2-yl}pyrrolidin-3-ol] | – | – | IC50 [1, 7]: < 100 nM; IC50 [2, 8]: 100 to 1000 nM
Cc1ccnc(Nc2cccc(-c3cnc(N4CCN(C(=O)OC(C)(C)C)CC4)s3)n2)c1 [Compound A-403] | – | – | IC50 [1, 7]: > 1000 nM; IC50 [2, 8]: > 1000 nM
Cc1ccnc(Nc2cccc(-c3cnc(CN4CCC(NS(C)(=O)=O)CC4)s3)n2)c1 [Compound A-236] | 100 to 1000 | 100 to 1000 | –
CC(=O)c1ccc(-c2cccc(Nc3cc(OCCN(C)C)ccn3)n2)s1 [Compound B-82] | – | – | IC50 [1, 5]: 100 to 1000 nM; IC50 [2, 6]: 100 to 1000 nM

Further lines, with some results ahead:

IC50 [1, 3] [nM] | IC50 [2, 4] [nM] | Compound | other results
> 1000 | > 1000 | CC(=O)Nc1nc([C@H](C)NC(C)=O)sc1-c1cccc(Nc2cc(C)ccn2)n1 [Compound A-119] | –
100 to 1000 | – | Cc1ccnc(Nc2cccc(-c3cnc(C4CCCC(C(=O)N5CCC(O)CC5)C4)s3)n2)c1 (stereo not shown) [Compound A-271] | IC50 ([2]; anti-hIgE stimulation, β-Hexosaminidase index, average): 100 to 1000 nM
< 100 | 100 to 1000 | Cc1ccnc(Nc2cccc(-c3cnc([C@@H]4CCC(=O)O4)s3)n2)c1 [Compound A-33, (S)-5-{5-[6-(4-methylpyridin-2-ylamino)pyridin-2-yl]thiazol-2-yl}dihydrofuran-2-one] | –
< 100 | 100 to 1000 | CC(=O)N[C@@H](C)c1ncc(-c2cccc(Nc3cc(-c4ccncc4)ccn3)n2)s1 [Compound A-79, N—((S)-1-{5-[6-([4,4′]bipyridinyl-2-ylamino)pyridin-2-yl]thiazol-2-yl}ethyl)acetamide] | –
> 1000 | > 1000 | Cc1ccnc(Nc2cccc(-c3cnc([C@H](Cc4ccccc4)NC(=O)OC(C)(C)C)s3)n2)c1 [Compound A-39] | –
100 to 1000 | > 1000 | CC(=O)NCC(=O)N[C@@H](C)c1ncc(-c2cccc(Nc3cc(C)ccn3)n2)s1 [Compound A-355] | –
< 100 | 100 to 1000 | Cc1ccnc(Nc2cccc(-c3cnc([C@H]4CC[C@H](CNS(C)(=O)=O)CC4)s3)n2)c1 [Compound A-229, N-(trans-4-{5-[6-(4-methylpyridin-2-ylamino)pyridin-2-yl]thiazol-2-yl}cyclohexylmethyl)methanesulfonamide] | –
100 to 1000 | > 1000 | COc1ccc(NCc2ncc(-c3cccc(Nc4cc(C)ccn4)n3)s2)cc1 [Compound A-214] | –
100 to 1000 | > 1000 | Cc1ccnc(Nc2cccc(-c3cnc(CCc4cccc(C(=O)O)c4)s3)n2)c1 [Compound A-276] | –

Source: US7803801B2, “Aminopyridine compounds having Syk inhibitory activity” (Japan Tobacco, Inc., priority 2005, dated 2010)
